Patent US7241793B2, “Phenyloxyalkanonic acid derivatives as hPPAR activators” (SmithKline Beecham Corporation, priority 2002, dated 2007)

Row | Structure (SMILES) | melting point [°C]
1 | Cc1cc(CN(Cc2ccc(F)cc2)c2cc(-c3ccc(C(F)(F)F)cc3)nn2C)cc(C)c1OC(C)(C)C(=O)O [Example 14, 2-[4-({(4-Fluoro-benzyl)-[2-methyl-5-(4-trifluoromethyl-phenyl)-2H-pyrazol-3-yl]-amino}-methyl)-2,6-dimethyl-phenoxy]-2-methyl-propionic acid] | > 90
2 | Cc1cc(CN(Cc2ccsc2)c2sc(-c3ccc(C(F)(F)F)cc3)nc2C)cc(C)c1OC(C)(C)C(=O)O [Example 2, 2-[2,6-Dimethyl-4-({[4-methyl-2-(4-trifluoromethyl-phenyl)-thiazol-5-yl]-thiophen-3-ylmethyl-amino}-methyl)-phenoxy]-2-methyl-propionic acid] | 90 to 100
3 | Cc1cc(CN(Cc2cccs2)c2sc(-c3ccc(C(F)(F)F)cc3)nc2C)ccc1OC(C)(C)C(=O)O [Example 91, 2-Methyl-2-(2-methyl-4-{([4-methyl-2-(4-trifluoromethylphenyl)thiazol-5-yl-]thiophen-2-ylmethylamino)methyl}phenoxy)propionic acid] | 100
4 | Cc1cc(CN(C)c2cc(-c3ccc(Cl)cc3)nn2C)cc(C)c1OC(C)(C)C(=O)O [Example 6, 2-[4-({[5-(4-Chloro-phenyl)-2-methyl-2H-pyrazol-3-yl]-methyl-amino}-methyl)-2,6-dimethyl-phenoxy]-2-methyl-propionic acid] | 158
5 | Cc1cc(CN(Cc2ccco2)c2sc(-c3ccc(C(F)(F)F)cc3)nc2C)ccc1OC(C)(C)C(=O)O [Example 93, 2-Methyl-2-(2-methyl-4-{([4-methyl-2-(4-trifluoromethylphenyl)thiazol-5-yl]furan-2-ylmethylamino)methyl}phenoxy)propionic acid] | 80
